According to patent US12055553B2, “Method for diagnosing risk for inflammatory disease through glycan profiling” (The Regents of the University of California, priority 2017, dated 2024):

How the values were obtained:
[1] = system: THP-1 cells; experiment: Lectin array of THP-1 monocyte cell surface glycan composition after monosaccharide supplementation; type: cell-based; details: 3 days
Description: THP-1 cells (monocyte cell line) were incubated with different sugars (i.e. monosaccharides) for 3 days. Lectin arrays were used to detect changes in the cell surface glycan composition. Secreted HDL from the cell supernatant (monocytes secrete their own HDL) was isolated and then analyzed to determine the glycan composition.
• ConA (Concanavalin A): binds internal and nonreducing terminal α-D-mannosyl (αMan) and α-D-glucosyl groups (αGIc) • JAC (Jacalin): binds galactose-containing O-glycoproteins (Galβ3GalNac) • SNA (Sambucus nigra): binds sialic acid attached to terminal galactose in α-2,6 and to a lesser degree, α-2,3 linkage (Neu5Acα6Gal/GalNac) • AAL (Aleuria auanda lectin): binds fucose linked (α-1,6) to N-acetylglucosamine or to fucose linked (α-1,3) to N-acetyllactosamine related structures, exposed core (α-1, 6) and outer arm (α-1, 2 or α-1, 3) linked fucose moieties. Sugar Treatments: • L-fucose: Tested 2 doses: 300 umol/L (physiologic) and 100 mmol/L. (Marquardt T, Blood, December 15; 94(12):3976-85, 1999): Named L-Fuc Low and L-Fuc High • Fructose: Tested 2 doses: 27 mmol/L (physiologic) and 100 mmol/L. (Hui H, Pancreas, August 38(6): 706-12, 2009); Named Fruc Low and Fruc High • N-acetylglucosamine (GlcNAc): Tested 1 dose: 100 mmol/L. (Villiger TK, Controlling the time evolution of mAb N-finked glycosylation, Part I: Microbioreactor experiments, Biotechnol Prog, September; 32(5):1123-1134, 2016) • Galactose: The two doses for the galactose treatment in the glycan array experiments were: 150 mmol/L and 75 mmol/L. (Villiger TK, Controlling the time evolution of mAb N-linked glycosylation, Part II: Model-based predictions, Biotechnol Prog, September; 32(5):135-1148, 2016)

[2] = system: HT-29 cells; experiment: Cell surface N-glycan profiling (PGC-LC-MS) of HT-29 after supplementation; type: cell-based, Human; details: HT-29, 72 h, fructose 50 mM, glutamine 10 mM
Description: (§1) We examined whether supplementation of free monosacchaides derived from diet changes N-glycosylation outcomes on the intestinal cell-surface at concentrations relevant to physiological conditions. Changes in glycosylation were assessed by globally releasing glycans from membrane proteins extracted from fully differentiated (Caco-2) and partially differentiated (HT-29) intestinal epithelial cells and analyzing the mixture by porous graphitized carbon (PGC)-LC-MS. […] The glycan profile under normal growth conditions was used as a frame of reference with which to compare the glycome at varied environments.
(§2) Human colorectal adenocarcinoma Caco-2 cells derived from a person, were obtained from American Type Culture Collection (ATCC, VA) and grown in Eagle's Minimum Essential Medium (EMEM) supplemented with non-essential amino acids, 2 mM L-glutamine, 10% (v/v) fetal bovine serum (Life Technologies, NY), 1 mM sodium pyruvate, 1.5 g/L sodium bicarbonate, 100 U/mL penicillin, and 100 μg/mL streptomycin. Alternatively, Caco-2 cells were grown in Dulbecco's Modified Eagle's Medium (DMEM) supplemented with 10% (v/v) fetal bovine serum, 100 U/mL penicillin, and 100 μg/mL streptomycin. Human colorectal adenocarcinoma HT-29 cells, derived from a person, were obtained from ATCC and grown in McCoy's 5A medium supplemented with 10% (v/v) fetal bovine serum, 100 U/mL penicillin, and 100 μg/mL streptomycin. Cells were subcultured at 80% confluency and maintained at 37° C. in a humidified incubator with 5% CO=2. All treatments were added to the media after cell differentiation. Caco-2 cells were fully differentiated 14-days post-confluency. HT-29 cells were partially differentiated 4-days post-confluency. After 72 h, cells were collected in biological triplicates by scraping A fixed count of 2×10^6 viable cells was used for each experiment Passage number between experiments was controlled to no higher than P40 and a delta P of no more than 20. High passage cells were scraped after P80. Media was renewed three times a week unless specified. Monolayer integrity and quality of cell borders were evaluated under the microscope routinely during growth and before harvest.
(§3) In brief harvested cells were resuspended in homogenization buffer containing 0.25 M sucrose, 20 mM HEPES-KOH (pH 7.4), and 1:100 protease inhibitor (EMD Millipore, CA). Cell lysis was performed on ice using a probe sonicator (Qsonica, CT) with five alternating and on and off pulses in 5 and 10 s intervals, respectively. Lysates were […] at 2,000×g for 10 min to remove the nuclear fraction and cellular debris. The supernatant was collected and brought to 1 mL with homogenization buffer for ultracentrifugation at 200,000×g for 45 min at 4° C. The pallet was resuspended and repelleted by ultracentrifugation in 0.2 M Na2CO3 (pH 11) followed by water to fragment the endoplasmic reticulum and remove the cytoplasmic fraction, respectively. The resulting membrane faction was isolated and stored at −20° C. until further processing.
(§4) Membrane pellets were resuspended with 100 μL of 100 mM ammonium bicarbonate in 5 mM dithiothreitol and heated for 10 s at 100° C. to thermally denature the proteins. […] After addition of 400 μL of chilled ethanol, samples were placed in −80° C. for 1.5 h and centrifuged for 20 min at 21,130×g to precipitate residual deglycosylated proteins. The supernatant containing the released N-glycans was collected and dried. N-Glycans were purified by solid phase extraction containing a porous graphitized carbon (PGC) matrix. Eluted fractions were dried in vacuo.

[3] = system: Caco-2 cells; type: cell-based
Description: as §1, §2, §3, §4

[4] = system: methicillin-resistant Staphylococcus aureus (MRSA); experiment: Bacterial association assay on Caco-2 host cells, MRSA; type: cell-based
Description: (§5) Enterohaemorrhagic Escherichia coli O157H;7 (EHEC) and methicillin-resistant Staphyloccuus aureus (MRSA) were grown at 37° C. with continuous shaking for 14-16 h.
(§6) Caco-2 cells were seeded into 24-well plates at 5×10^5 cells per well. Wells were designated as control (Row 1) or treated with kifunensine (Row 2). For adhesion, the left half of the plate was infected with logarithmically growing enterohaemorrhagic Escherichia coli O157:H7 (EHEC), and the right half of the plate was infected with methicillin-resistant Staphylocaccus aureus (MRSA). Triplicate setups were prepared for each condition. After 2 h, the wells were washed 3× with PBS and the adherent cell counts were determined by serial dilutions and spotting of the lysate generated upon treatment of the wells with, PBS/0.5% Triton for 5 min. CFU are expressed per mL as a comparison between the different treatments. For measuring uptake, the duplicate plate was similarly infected with EHEC and MRSA. Two hours post-infection, the unbound bacteria were washed with PBS (3×) and the Caco-2-cells were treated with media containing 100 μg/mL gentamicin to lyse cell surface associated bacteria. Following a 2 h-treatment, the internalized bacterial cell counts were derived upon lysing the Caco-2 cells with PBS/0.5% Triton followed by serial dilution and CFU counts.

[5] = system: alkaline phosphatase (IAP); experiment: Intestinal alkaline phosphatase activity in membrane fractions of treated Caco-2 cells; type: cell-based, Human; details: enriched membrane fractions of kifunensine-treated (high mannose rich) cells
Description: Intestinal alkaline phosphatase (IAP) activity was measured in membrane-enriched factions using a colorimetric assay per manufacturer's instructions (Abcam, MA). Cells were incubated with 50 μM p-nitrophenyl phosphate (p-NPP) for 60 min. Dephosphorylated was monitored by the production of p-nitrophenyl, which turns the solution to a visible yellow color. Absorbance readings were taken at 405 nm with a microplate photometer. Enzyme activities were determined with a standard curve generated using IAP enzyme. Activity was measured in U/mL, where a Unit is defined as the amount of enzyme to hydrolyze 1 μmol of p-NPP per minute at 37° C.

[6] = system: dipeptidyl peptidase IV (DPP IV); experiment: Dipeptidyl peptidase IV activity in membrane fractions of treated Caco-2 cells; type: cell-based, Human; details: membrane fractions of kifunensine-treated cells
Description: Dipeptidyl peptidase IV (DPP IV) activity was measured in membrane-enriched fractions using a colorimetric assay per manufacturer's instructions (Enzo Life sciences, NY). Membrane extracts from control and kifunensine-treated cells were incubated with a chromogenic substrate (H-Gly-Pro-pNa) at 25° C. for 30 min. Cleavage of p-nitroaniline (pNA) was monitored by absorbance measurements at […] with a microplate photometer. Enzyme activities were compared to a standard curve generated using a pNA standard. A reaction containing a DPP IV inhibitor (P32/98) was included as a control for enzymatic specificity.

[7] = system: enterohaemorrhagic Escherichia coli (EHEC); experiment: Bacterial association assay on Caco-2 host cells, EHEC; type: cell-based, Escherichia coli O157:H7
Description: as §5, §6

[8] = system: Caco-2 cells; experiment: Permeability assay, FITC-dextran passage through Caco-2 monolayer; type: cell-based, Human; details: 100 μg/mL treatment, after 2 h, untreated to treated, n=4
Description: Caco-2 cells were seeded on porous polycarbonate filter membranes (3401; Corning, NY) until cells formed a single monolayer and were fully differentiated. Kifunensine (Carbosynth, CA) was added post-differeniation for 72 h. Four replicates were prepared for both control and kifunensine-treated cases. Permeability experiments were performed in Hank's Balanced Salt Solution, prepared with 25 mM HEPES, 0.35 g/L sodium bicarbonate, and adjusted to pH 7.4 with sodium hydroxide. The prepared membranes were washed and inserted into a new micro-well plate. FITC-dextran (4 kDa) (Sigma-Aldrich, MO) was introduced to the upper (apical) chamber at 10 mg/mL. The plate was placed in a 37° C. incubator devoid of CO2 for 2 h on an orbital shaker at 100 rpm. The amount of FITC-dextran that transferred through the cells was measured in the lower (basolateral) chamber by fluorescence at 492/520 nm (excitation/emission) using a Perkin Elmer Victor3 Multilabel Plate Reader (Parkin Elmer, MA). The apparent permeability coefficient was determined according to the following equation: [formula] where dQ/dt is the rate of permeation across cells, A is the surface area of the membrane, and C0 is the initial donor concentration. Transepithelial electrical resistance (TEER) values were measured using a Millicell ERS Voltohmmeter (EMD Millipore, MA) at room temperature. Enzyme Activity Assay

[9] = cited from earlier work
[10] = high dose (galactose 150 mmol/L, fructose 100 mmol/L, L-fucose 100 mmol/L)
[11] = low dose (galactose 75 mmol/L, fructose 27 mmol/L, L-fucose 300 umol/L)
[12] = hyper-mannosylated (kifunensine-treated) Caco-2, within 2 h

## O=C(CO)[C@@H](O)[C@H](O)[C@H](O)CO [fructose]
[1]; [10]
  AAL binding (fucosylated glycans): decreased
  JAC binding (terminal galactose containing glycans): decreased
  SNA binding (terminal sialic acid): no effect
[1]; [11]
  AAL binding (fucosylated glycans): decreased
  SNA binding (terminal sialic acid): decreased
[1]; single dose (GlcNAc 100 mmol/L) or dose not distinguished
  ConA binding (glucose or mannose-terminated glycans): decreased
[2]
  change in fucosylated glycans: remained unaltered
[2]; mannose, glutamate 2 mM
  change in high mannose type glycans: remained unaltered
[3]; Caco-2, 72 h, fructose 50 mM, glutamine 10 mM
  increase in abundance of high mannose type N-glycans: 511%
[3]; Caco-2, 72 h, fructose 50 mM, GalNAc
  increase in abundance of non-decorated complex/hybrid type N-glycans: 672%
[3]; Caco-2, fructose 50 mM, 72 h
  fold increase of each of Hex3HexNAc4Fuc1, Hex4HexNAc5Fuc1, Hex6HexNAc4Fuc1, Hex5HexNAc5Fuc1: more than 4 fold

## O=C1N[C@@H]2[C@@H](O)[C@@H](O)[C@H](O)[C@@H](CO)N2C1=O [kifunensine]
[4]; [12]
  increase in ability of MRSA to adhere to the monolayer: > 5000%
[4]; kifunensine-transformed Caco-2
  more MRSA bacteria able to invade transformed host cells than untreated cells: approximately 30%
[5]
  decrease in IAP activity vs unaltered Caco-2 cells: ~32%
[3]; Caco-2, kifunensine-treated
  cell viability: without affecting viability
  conversion of surface glycans into high mannose glycans: nearly complete conversion
[6]
  DPP IV activity change: nearly unaffected
[7]; Caco-2 rich in high mannose glycans (kifunensine-treated), p=0.0005
  EHEC uptake in comparison to control cells: significantly reduced
[7]; [12]
  EHEC binding to the monolayer: did not significantly affect
[8]
  maximum increase in passage of FITC-D4 from upper to lower chamber: 64%

## CC(=O)N[C@H]1[C@H]([C@H](O)[C@H](O)CO)OC(O)(C(=O)O)C[C@@H]1O (stereo partly drawn) [sialic acid]
[9]
  pKa: 2.6
